# Data published in US11098294B2, “Anti-inflammatory peptides and composition comprising same” (GemVax & KAEL Co., Ltd., priority 2012, dated 2021).
# Legend:
# [1] = system: TNF-α; assay: TNF-α level in THP1 cell line differentiated by PMA (ELISA); format: cell-based, human; details: THP-1 differentiated by PMA, 1 μM peptide 1 hour; for reduction of TNF-α level compared to control group treated only with LPS: LPS 10 ng/ml 2 hours; for reduction of expression level of TNF-α compared to group treated with LPS and estrogen: LPS 10 ng/ml
# Method: Experiment was carried out using THP-1 cell line (American Type Culture Collection (ATCC), Manassas, Va., USA) which is human acute monocytic leukemia.
# THP-1 cells were incubated to reach the number of 1×10^5 cells per well in a 96-well plate with RPMI 1640 medium for 24 hrs, followed by addition of […] of PMA (phorbol 12-myristate 13-acetate) for the differentiation into macrophage. After differentiation of THP-1 into macrophage by PMA for a day, LPS was treated for 2 hrs and washed off. Starvation for an hour and PEP1 treatment followed.
# THP-1 cell differentiated by PMA was treated with LPS (lipopolysaccharide; 10 ng/ml, Sigma) for 2 hours, followed by 2 times washes with PBS. To the cells, OPTI-MEM culture medium was added to induce cell starvation for an hour, and 1 μM of 161 peptides was taken out and incubated for an hour. After incubation, TNF-α level was measured by using the ELISA kit and the peptides which reduce the TNF-α level were screened (FIG. 17 to FIG. 35).
# [2] = system: TNF-α; assay: TNF-α inhibitory effect in PBMC-derived monocyte (ELISA); format: cell-based, human; details: PBMC-derived monocytes, 4 μM peptide 2 hrs; for TNF-α inhibiting effect compared to the group treated with LPS and estrogen: LPS 10 ng/ml, estrogen 20 nM; for TNF-α inhibiting effect compared to the control group treated with only LPS: LPS 10 ng/ml 2 hours
# Method: PBMC (peripheral blood mononuclear cells) layer was separated from blood samples (50 ml) collected in healthy subjects using Biocoll Separating Solution (Biochrom AG, Berlin, Germany). The collected PBMC were enriched in RPMI 1640 medium containing 20% human serum for 30 mins, and then transferred to 100-mm polystyeren cell culture plate coated with human serum for incubation for 2 hrs at 37° C., 5% CO^2 incubator. Monocytes were detached from the bottom of the plate using cold PBS, and incubated to reach the number of 1×10^5 cell/well in 96-well plate with RPMI 1640 medium (supplemented with penicillin-streptomycin; 100 mg/ml, human serum; 20%) over night.
# ELISA was performed to find out how the peptides of the PEP RIA series influence TNF-α level. PBMC-derived monocytes were incubated to reach the number of 1×10^5 cells per well in a 96-well plate and then treated with LPS (lipopolysaccharide; 10 ng/ml, Sigma) for 2 hours. To the monocytes that were washed three times with PBS, OPTI-MEM culture medium was added to induce cell starvation for an hour, 4 μM of the peptide was taken out and incubated for 2 hours. There were three negative control groups. The first group was not treated with anything. The second group that was treated with estrogen (in this experiment, estradiol was used as a kind of estrogen). The third group was treated with LPS (10 ng/ml) or with LPS (10 ng/ml) as well as estrogen (20 nM). PEP1 that was confirmed to have TNF-α inhibiting activity was used as a positive control to measure TNF-α inhibiting activity. After incubation, TNF-α was measured by following the ELISA kit manual (R&D, Minneapolis, Minn., USA). The details of quantification method can be found in Experiment 2.2 of Example 1.
# Using the method stated above, Peptides with TNF-α inhibiting effect were screened. PBMC-derived monocytes were stimulated with LPS (10 ng/ml), which is endotoxin, for 2 hours and were induced to starve by adding OPTI-MEM for 1 hour. After that, 4 μM of 161 peptides were treated and incubated for 2 hrs. The amount of TNF-α in the cell culture medium was measured using ELISA, and the peptides with TNF-α inhibiting effect were screened by comparing to the negative and positive controls (FIG. 1 to FIG. 16).
Sequence,reduction of TNF-α level compared to control group treated only with LPS [1],reduction of expression level of TNF-α compared to group treated with LPS and estrogen [1],TNF-α inhibiting effect compared to the group treated with LPS and estrogen [2],TNF-α inhibiting effect compared to the control group treated with only LPS [2]
YERARRPGL (listed as Homo sapiens) [SEQ ID NO: 10],appeared to reduce the TNF-α level,reduce the expression level of TNF-α,–,–
FHQQVWKNPTFFLRVISDTA (listed as Homo sapiens) [SEQ ID NO: 99],–,–,showed TNF-α inhibiting effect,–
SVLNYERARR (listed as Homo sapiens) [SEQ ID NO: 15],appeared to reduce the TNF-α level,reduce the expression level of TNF-α,–,–
RTRGPSDRGFCVVSPARPAE (listed as Homo sapiens) [SEQ ID NO: 61],–,–,showed TNF-α inhibiting effect,–
GVPLGLPSPGARRRGGSASR (GVPLGLPAPGARRRGGSASR; listed as Homo sapiens) [SEQ ID NO: 116],–,–,–,showed TNF-α inhibiting effect
RTFVLRVRAQDPPPE (listed as Homo sapiens) [SEQ ID NO: 7],appeared to reduce the TNF-α level,reduce the expression level of TNF-α,–,–
LFSVLNYERARRPGLLGASV (listed as Homo sapiens) [SEQ ID NO: 81],–,–,showed TNF-α inhibiting effect,–
MPRAPRCRAVRSLLRSHYRE (listed as Homo sapiens) [SEQ ID NO: 48],–,–,showed TNF-α inhibiting effect,–
FFLRVISDTASLCYSILKAK (listed as Homo sapiens) [SEQ ID NO: 157],–,reduce the expression level of TNF-α,–,–
GLLGASVLG (listed as Homo sapiens) [SEQ ID NO: 29],appeared to reduce the TNF-α level,reduce the expression level of TNF-α,showed TNF-α inhibiting effect,–
SRPPRPWDTPCPPVYAETKH (listed as Homo sapiens) [SEQ ID NO: 121],–,–,showed TNF-α inhibiting effect,–
RFHACVLQLPFHQQVWKNPT (listed as Homo sapiens) [SEQ ID NO: 156],–,reduce the expression level of TNF-α,–,–
LLVTPHLTHAKTFLRTLVRG (listed as Homo sapiens) [SEQ ID NO: 149],appeared to reduce the TNF-α level,–,showed TNF-α inhibiting effect,showed TNF-α inhibiting effect
WMPGTPRRLPRLPQRYWQMR (listed as Homo sapiens) [SEQ ID NO: 124],–,–,–,showed TNF-α inhibiting effect
LGLDDIHRAWRTFVLRVRAQ (listed as Homo sapiens) [SEQ ID NO: 82],–,–,showed TNF-α inhibiting effect,–
SVLGLDDIH (listed as Homo sapiens) [SEQ ID NO: 30],appeared to reduce the TNF-α level,reduce the expression level of TNF-α,–,–
AERLTSRVKALFSVL (listed as Homo sapiens) [SEQ ID NO: 9],appeared to reduce the TNF-α level,reduce the expression level of TNF-α,–,showed TNF-α inhibiting effect

Sequence,reduction of TNF-α level compared to control group treated only with LPS [1],reduction of expression level of TNF-α compared to group treated with LPS and estrogen [1],TNF-α inhibiting effect compared to the group treated with LPS and estrogen [2],TNF-α inhibiting effect compared to the control group treated with only LPS [2]
DEALGGTAFVQMPAHGLFPW (listed as Homo sapiens) [SEQ ID NO: 151],appeared to reduce the TNF-α level,–,–,–
EDTDPRRLVQLLRQHSSPWQ (listed as Homo sapiens) [SEQ ID NO: 70],appeared to reduce the TNF-α level,–,showed TNF-α inhibiting effect,–
AQCPYGVLLKTHCPLRAAVT (listed as Homo sapiens) [SEQ ID NO: 68],appeared to reduce the TNF-α level,–,–,–
NKLFAGIRRDGLLLRLVDDF (listed as Homo sapiens) [SEQ ID NO: 148],appeared to reduce the TNF-α level,–,showed TNF-α inhibiting effect,showed TNF-α inhibiting effect
LKRVQLRELSEAEVRQ (listed as Homo sapiens) [SEQ ID NO: 47],–,–,showed TNF-α inhibiting effect,–
SGPRRRLGCERAWMHSVREA (SGPRRRLGCERAWNHSVREA; listed as Homo sapiens) [SEQ ID NO: 115],–,–,–,showed TNF-α inhibiting effect
VLGLDDIHRA (listed as Homo sapiens) [SEQ ID NO: 12],appeared to reduce the TNF-α level,reduce the expression level of TNF-α,–,–
RLPQRYWQMRPLFLELLGNH (listed as Homo sapiens) [SEQ ID NO: 67],appeared to reduce the TNF-α level,–,–,–
NRGFKAGRNMRRKLFGVLRL (listed as Homo sapiens) [SEQ ID NO: 96],–,–,showed TNF-α inhibiting effect,showed TNF-α inhibiting effect
CGPPLYQLGAATQARPPPHA (listed as Homo sapiens) [SEQ ID NO: 114],appeared to reduce the TNF-α level,–,–,–
GASVLGLDDI (listed as Homo sapiens) [SEQ ID NO: 13],appeared to reduce the TNF-α level,reduce the expression level of TNF-α,–,–
QWLCHQAFLLKLTRHRVTTV (QWLCHQAFLLKLTRHRVTYV; listed as Homo sapiens) [SEQ ID NO: 159],–,reduce the expression level of TNF-α,–,–
LLGASVLGL (listed as Homo sapiens) [SEQ ID NO: 11],–,–,–,showed TNF-α inhibiting effect
RFMCHHAVRIRGKSYVQCQG (listed as Homo sapiens) [SEQ ID NO: 146],appeared to reduce the TNF-α level,–,showed TNF-α inhibiting effect,showed TNF-α inhibiting effect
QMPAHGLFPWCGLLLDTRTL (listed as Homo sapiens) [SEQ ID NO: 94],appeared to reduce the TNF-α level,–,–,–
GTRHSHPSVGRQHHAGPPST (listed as Homo sapiens) [SEQ ID NO: 120],–,–,showed TNF-α inhibiting effect,–
